Assay results reported in ChEMBL document CHEMBL4507289, “Data for DCP probe GSM1” (2021).

Key:
[1] = target: Casein kinase I isoform alpha-like (Homo sapiens) (UniProt Q8N752); details: Compound concentration 1000.0 nM
[2] = target: Mitogen-activated protein kinase 10 (Homo sapiens) (UniProt P53779); details: Compound concentration 1000.0 nM
[3] = target: Serine/threonine-protein kinase PAK 5 (Homo sapiens) (UniProt Q9P286); details: Compound concentration 1000.0 nM
[4] = target: Serine/threonine-protein kinase ULK3 (Homo sapiens) (UniProt Q6PHR2); details: Compound concentration 1000.0 nM
[5] = target: Angiopoietin-1 receptor (Homo sapiens) (UniProt Q02763); details: Compound concentration 1000.0 nM
[6] = target: Alpha-2B adrenergic receptor (Homo sapiens) (UniProt P18089); details: Compound concentration 10.0 uM
[7] = target: Sigma intracellular receptor 2 (Homo sapiens, UniProt Q5BJF2); experiment: GPCRScan assay: inhibition of Sigma 2; set-up: radioligand conc. used [nm] 5.0, parental cells HEKT
[8] = target: Muscarinic acetylcholine receptor M5 (Homo sapiens) (UniProt P08912); details: Compound concentration 10.0 uM
[9] = target: Cyclin-dependent kinase 4 (Homo sapiens) (UniProt P11802); details: Compound concentration 1000.0 nM
[10] = target: Mitogen-activated protein kinase 6 (Homo sapiens) (UniProt Q16659); details: Compound concentration 1000.0 nM
[11] = system: Proto-oncogene tyrosine-protein kinase receptor Ret (Homo sapiens), P07949 [M918T]; details: Compound concentration 1000.0 nM
[12] = target: TGF-beta receptor type-2 (Homo sapiens) (UniProt P37173); details: Compound concentration 1000.0 nM
[13] = target: STE20/SPS1-related proline-alanine-rich protein kinase (Homo sapiens) (UniProt Q9UEW8); details: Compound concentration 1000.0 nM
[14] = target: Macrophage colony-stimulating factor 1 receptor (Homo sapiens) (UniProt P07333); details: Compound concentration 1000.0 nM
[15] = target: Atypical kinase COQ8A, mitochondrial (Homo sapiens) (UniProt Q8NI60); details: Compound concentration 1000.0 nM
[16] = target: Serine/threonine-protein kinase Chk2 (Homo sapiens) (UniProt O96017); details: Compound concentration 1000.0 nM
[17] = target: Casein kinase II subunit alpha' (Homo sapiens) (UniProt P19784); details: Compound concentration 1000.0 nM
[18] = target: Dual specificity protein kinase TTK (Homo sapiens) (UniProt P33981); details: Compound concentration 1000.0 nM
[19] = target: Interleukin-1 receptor-associated kinase 3 (Homo sapiens) (UniProt Q9Y616); details: Compound concentration 1000.0 nM
[20] = target: Serine/threonine-protein kinase TNNI3K (Homo sapiens) (UniProt Q59H18); details: Compound concentration 1000.0 nM
[21] = target: Serine/threonine-protein kinase D2 (Homo sapiens) (UniProt Q9BZL6); details: Compound concentration 1000.0 nM
[22] = target: Protein kinase C theta type (Homo sapiens) (UniProt Q04759); details: Compound concentration 1000.0 nM
[23] = target: Serine/threonine-protein kinase ULK2 (Homo sapiens) (UniProt Q8IYT8); details: Compound concentration 1000.0 nM
[24] = target: Phosphatidylinositol 5-phosphate 4-kinase type-2 beta (Homo sapiens) (UniProt P78356); details: Compound concentration 1000.0 nM
[25] = target: Serine/threonine-protein kinase Nek10 (Homo sapiens) (UniProt Q6ZWH5); details: Compound concentration 1000.0 nM
[26] = system: ALK tyrosine kinase receptor (Homo sapiens), Q9UM73 [L1196M]; details: Compound concentration 1000.0 nM
[27] = system: Mast/stem cell growth factor receptor Kit (Homo sapiens), P10721 [V559D]; details: Compound concentration 1000.0 nM
[28] = target: Serine/threonine-protein kinase Sgk1 (Homo sapiens) (UniProt O00141); details: Compound concentration 1000.0 nM
[29] = target: Cyclin-dependent kinase 8 (Homo sapiens) (UniProt P49336); details: Compound concentration 1000.0 nM
[30] = target: Dual specificity protein kinase CLK1 (Homo sapiens) (UniProt P49759); details: Compound concentration 1000.0 nM
[31] = target: Aurora kinase C (Homo sapiens) (UniProt Q9UQB9); details: Compound concentration 1000.0 nM
[32] = target: Atypical kinase COQ8B, mitochondrial (Homo sapiens) (UniProt Q96D53); details: Compound concentration 1000.0 nM
[33] = target: Ribosomal protein S6 kinase alpha-4 (Homo sapiens) (UniProt O75676); details: Compound concentration 1000.0 nM
[34] = target: Dual specificity protein kinase CLK2 (Homo sapiens) (UniProt P49760); details: Compound concentration 1000.0 nM
[35] = target: Mitogen-activated protein kinase 4 (Homo sapiens) (UniProt P31152); details: Compound concentration 1000.0 nM
[36] = target: Myotonin-protein kinase (Homo sapiens) (UniProt Q09013); details: Compound concentration 1000.0 nM
[37] = target: Dual specificity mitogen-activated protein kinase kinase 1 (Homo sapiens) (UniProt Q02750); details: Compound concentration 1000.0 nM
[38] = target: Cyclin-dependent kinase 11A (Homo sapiens) (UniProt Q9UQ88); details: Compound concentration 1000.0 nM
[39] = target: Mitogen-activated protein kinase kinase kinase kinase 4 (Homo sapiens) (UniProt O95819); details: Compound concentration 1000.0 nM
[40] = target: cAMP-dependent protein kinase catalytic subunit alpha (Homo sapiens) (UniProt P17612); details: Compound concentration 1000.0 nM
[41] = target: Phosphorylase b kinase regulatory subunit alpha, liver isoform (Homo sapiens) (UniProt P46019); details: Compound concentration 1000.0 nM
[42] = target: Serine/threonine-protein kinase haspin (Homo sapiens) (UniProt Q8TF76); details: Compound concentration 1000.0 nM
[43] = target: D(1B) dopamine receptor (Homo sapiens) (UniProt P21918); details: Compound concentration 10.0 uM
[44] = target: Serine/threonine-protein kinase 32B (Homo sapiens) (UniProt Q9NY57); details: Compound concentration 1000.0 nM
[45] = target: Serine/threonine-protein kinase MRCK beta (Homo sapiens) (UniProt Q9Y5S2); details: Compound concentration 1000.0 nM
Sequence of Serine/threonine-protein kinase MRCK beta (Homo sapiens) (Q9Y5S2 whole entry): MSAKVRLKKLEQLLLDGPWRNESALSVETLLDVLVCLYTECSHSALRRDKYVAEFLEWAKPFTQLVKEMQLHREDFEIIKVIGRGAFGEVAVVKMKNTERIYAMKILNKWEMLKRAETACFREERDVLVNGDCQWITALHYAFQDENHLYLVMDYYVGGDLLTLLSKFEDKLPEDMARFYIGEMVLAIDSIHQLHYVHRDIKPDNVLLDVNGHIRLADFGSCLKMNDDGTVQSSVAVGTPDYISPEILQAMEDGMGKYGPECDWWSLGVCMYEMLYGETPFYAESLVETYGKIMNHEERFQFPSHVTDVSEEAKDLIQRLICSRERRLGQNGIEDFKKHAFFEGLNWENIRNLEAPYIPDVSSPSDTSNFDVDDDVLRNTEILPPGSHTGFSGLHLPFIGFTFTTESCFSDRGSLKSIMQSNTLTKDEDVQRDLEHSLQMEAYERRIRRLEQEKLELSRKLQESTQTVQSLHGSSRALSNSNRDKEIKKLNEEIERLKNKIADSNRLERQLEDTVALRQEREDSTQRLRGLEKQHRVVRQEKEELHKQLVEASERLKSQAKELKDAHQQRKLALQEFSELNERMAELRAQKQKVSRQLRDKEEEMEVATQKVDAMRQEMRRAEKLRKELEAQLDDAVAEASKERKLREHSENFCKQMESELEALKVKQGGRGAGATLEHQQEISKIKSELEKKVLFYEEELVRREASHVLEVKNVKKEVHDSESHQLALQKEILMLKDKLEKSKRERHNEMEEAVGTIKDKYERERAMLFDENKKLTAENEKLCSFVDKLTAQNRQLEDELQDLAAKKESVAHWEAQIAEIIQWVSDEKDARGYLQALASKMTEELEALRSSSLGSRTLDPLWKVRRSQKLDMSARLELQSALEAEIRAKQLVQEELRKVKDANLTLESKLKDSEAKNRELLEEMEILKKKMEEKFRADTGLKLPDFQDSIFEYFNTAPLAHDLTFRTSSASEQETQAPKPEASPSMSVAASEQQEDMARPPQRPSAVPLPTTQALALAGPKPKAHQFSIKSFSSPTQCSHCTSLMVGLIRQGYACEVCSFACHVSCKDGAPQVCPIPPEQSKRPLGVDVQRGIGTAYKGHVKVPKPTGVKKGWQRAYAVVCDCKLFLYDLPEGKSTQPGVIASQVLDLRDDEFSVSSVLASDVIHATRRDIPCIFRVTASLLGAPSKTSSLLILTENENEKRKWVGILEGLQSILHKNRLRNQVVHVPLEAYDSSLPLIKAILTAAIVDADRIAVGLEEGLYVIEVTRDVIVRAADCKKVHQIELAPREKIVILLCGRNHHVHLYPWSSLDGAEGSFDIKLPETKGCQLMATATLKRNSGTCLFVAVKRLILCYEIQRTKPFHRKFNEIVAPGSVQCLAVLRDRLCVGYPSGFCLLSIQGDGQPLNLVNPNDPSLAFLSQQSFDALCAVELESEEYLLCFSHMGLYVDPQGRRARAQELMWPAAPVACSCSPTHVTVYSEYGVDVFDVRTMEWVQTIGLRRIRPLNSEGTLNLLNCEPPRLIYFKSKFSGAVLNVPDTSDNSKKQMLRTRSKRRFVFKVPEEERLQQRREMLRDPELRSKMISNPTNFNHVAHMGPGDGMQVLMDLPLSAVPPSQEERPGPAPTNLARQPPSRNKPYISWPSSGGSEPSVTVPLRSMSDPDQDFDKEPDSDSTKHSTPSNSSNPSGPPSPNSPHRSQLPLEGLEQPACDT

Sequence of Sigma intracellular receptor 2 (Q5BJF2 whole entry): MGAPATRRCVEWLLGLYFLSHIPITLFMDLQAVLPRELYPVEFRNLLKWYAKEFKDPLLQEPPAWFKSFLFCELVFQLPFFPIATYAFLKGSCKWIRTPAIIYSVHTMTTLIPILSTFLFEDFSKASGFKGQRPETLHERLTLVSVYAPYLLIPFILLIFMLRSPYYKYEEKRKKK
Sequence of Cyclin-dependent kinase 8 (Homo sapiens) (P49336 whole entry): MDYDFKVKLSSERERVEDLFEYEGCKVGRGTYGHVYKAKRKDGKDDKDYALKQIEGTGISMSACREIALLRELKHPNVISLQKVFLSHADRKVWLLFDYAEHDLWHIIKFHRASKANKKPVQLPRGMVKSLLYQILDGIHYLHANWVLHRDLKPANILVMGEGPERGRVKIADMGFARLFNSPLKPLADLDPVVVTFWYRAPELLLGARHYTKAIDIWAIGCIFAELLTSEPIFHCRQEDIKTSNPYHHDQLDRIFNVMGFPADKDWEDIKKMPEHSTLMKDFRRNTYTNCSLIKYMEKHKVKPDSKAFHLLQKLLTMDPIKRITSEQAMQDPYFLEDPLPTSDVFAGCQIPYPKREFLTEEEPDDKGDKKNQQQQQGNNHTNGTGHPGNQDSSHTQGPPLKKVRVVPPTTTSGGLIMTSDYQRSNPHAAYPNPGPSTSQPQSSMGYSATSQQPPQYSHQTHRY
Sequence of Serine/threonine-protein kinase 32B (Homo sapiens) (Q9NY57 whole entry): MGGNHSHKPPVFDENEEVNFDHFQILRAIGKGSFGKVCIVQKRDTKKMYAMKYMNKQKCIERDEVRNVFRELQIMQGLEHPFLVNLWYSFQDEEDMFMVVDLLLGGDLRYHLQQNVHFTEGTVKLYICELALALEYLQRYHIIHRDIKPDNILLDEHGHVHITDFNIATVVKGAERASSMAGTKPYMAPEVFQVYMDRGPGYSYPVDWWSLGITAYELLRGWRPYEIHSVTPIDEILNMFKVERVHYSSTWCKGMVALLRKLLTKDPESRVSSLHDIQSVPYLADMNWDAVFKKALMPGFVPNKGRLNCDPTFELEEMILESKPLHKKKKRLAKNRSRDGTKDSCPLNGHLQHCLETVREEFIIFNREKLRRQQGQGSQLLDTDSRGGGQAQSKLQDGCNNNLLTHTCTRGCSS
Sequence of Dual specificity protein kinase TTK (Homo sapiens) (P33981 whole entry): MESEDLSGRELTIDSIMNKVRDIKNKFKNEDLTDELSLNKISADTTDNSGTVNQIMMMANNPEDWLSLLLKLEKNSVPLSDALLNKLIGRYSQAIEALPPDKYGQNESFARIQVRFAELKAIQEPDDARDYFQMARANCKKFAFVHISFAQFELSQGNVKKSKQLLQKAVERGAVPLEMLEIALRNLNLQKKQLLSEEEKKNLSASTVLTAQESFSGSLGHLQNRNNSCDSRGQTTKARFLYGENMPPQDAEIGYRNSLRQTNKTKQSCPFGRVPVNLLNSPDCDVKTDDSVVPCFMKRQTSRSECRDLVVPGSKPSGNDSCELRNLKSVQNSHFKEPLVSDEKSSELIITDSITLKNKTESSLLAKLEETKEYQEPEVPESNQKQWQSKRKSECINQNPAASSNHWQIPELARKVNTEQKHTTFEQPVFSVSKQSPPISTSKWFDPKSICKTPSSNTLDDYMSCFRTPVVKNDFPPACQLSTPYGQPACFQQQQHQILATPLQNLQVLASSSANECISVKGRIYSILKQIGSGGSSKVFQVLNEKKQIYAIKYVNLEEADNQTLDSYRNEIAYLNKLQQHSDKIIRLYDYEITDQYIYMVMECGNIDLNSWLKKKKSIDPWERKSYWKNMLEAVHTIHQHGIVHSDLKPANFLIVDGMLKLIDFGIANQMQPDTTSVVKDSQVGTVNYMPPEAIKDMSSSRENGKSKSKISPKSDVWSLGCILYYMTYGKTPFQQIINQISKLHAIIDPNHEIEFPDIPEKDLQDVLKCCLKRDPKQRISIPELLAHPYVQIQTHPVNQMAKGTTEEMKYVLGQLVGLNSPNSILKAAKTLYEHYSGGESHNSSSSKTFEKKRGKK
Sequence of Serine/threonine-protein kinase Chk2 (Homo sapiens) (O96017 whole entry): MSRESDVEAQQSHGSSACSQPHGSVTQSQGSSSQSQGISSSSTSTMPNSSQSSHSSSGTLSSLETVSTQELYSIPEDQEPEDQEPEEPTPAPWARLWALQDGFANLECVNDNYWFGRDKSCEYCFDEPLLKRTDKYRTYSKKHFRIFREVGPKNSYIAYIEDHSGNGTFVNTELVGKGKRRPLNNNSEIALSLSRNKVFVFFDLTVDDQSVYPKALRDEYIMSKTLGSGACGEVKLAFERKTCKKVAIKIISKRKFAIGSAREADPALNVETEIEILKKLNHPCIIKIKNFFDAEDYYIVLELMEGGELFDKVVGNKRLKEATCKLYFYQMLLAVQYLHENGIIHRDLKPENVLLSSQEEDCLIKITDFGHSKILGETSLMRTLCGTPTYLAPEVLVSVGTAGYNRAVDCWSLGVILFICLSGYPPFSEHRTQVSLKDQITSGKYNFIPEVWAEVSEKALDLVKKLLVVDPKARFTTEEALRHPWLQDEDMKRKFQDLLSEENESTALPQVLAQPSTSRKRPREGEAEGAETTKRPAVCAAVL
Sequence of Mitogen-activated protein kinase 4 (Homo sapiens) (P31152 whole entry): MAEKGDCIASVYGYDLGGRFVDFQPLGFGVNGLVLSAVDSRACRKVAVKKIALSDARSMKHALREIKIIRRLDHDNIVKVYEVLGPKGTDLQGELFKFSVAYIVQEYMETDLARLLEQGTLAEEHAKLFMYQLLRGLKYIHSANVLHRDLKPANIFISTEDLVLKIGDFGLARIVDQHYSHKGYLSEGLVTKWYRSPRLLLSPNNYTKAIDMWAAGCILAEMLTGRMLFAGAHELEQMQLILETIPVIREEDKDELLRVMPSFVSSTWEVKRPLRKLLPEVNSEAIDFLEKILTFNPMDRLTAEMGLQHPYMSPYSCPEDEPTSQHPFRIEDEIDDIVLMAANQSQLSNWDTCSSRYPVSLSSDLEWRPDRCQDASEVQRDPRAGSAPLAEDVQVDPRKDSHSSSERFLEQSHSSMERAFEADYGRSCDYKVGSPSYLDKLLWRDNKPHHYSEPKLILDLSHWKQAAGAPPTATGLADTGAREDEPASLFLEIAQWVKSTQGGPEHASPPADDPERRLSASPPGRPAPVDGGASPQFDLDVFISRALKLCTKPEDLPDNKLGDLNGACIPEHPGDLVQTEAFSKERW

Compound: COc1cc(-c2cn([C@H]3CCc4ccccc4N(CC(F)(F)F)C3=O)nn2)ccc1-n1ccc(C)n1
- residual activity [1]: 100%
- residual activity [2]: 61%
- residual activity [3]: 96%
- residual activity [4]: 61%
- residual activity [5]: 81%
- inhibition [6]: 7.14%
- Ki ([7]; read-out: Ki): 835 nM
- Ki ([7]; read-out: pKi (converted)): 741 nM
- inhibition [8]: 0.39%
- residual activity [9]: 90%
- residual activity [10]: 100%
- residual activity [11]: 100%
- residual activity [12]: 100%
- residual activity [13]: 98%
- residual activity [14]: 92%
- residual activity [15]: 100%
- residual activity [16]: 100%
- residual activity [17]: 84%
- residual activity [18]: 100%
- residual activity [19]: 91%
- residual activity [20]: 100%
- residual activity [21]: 86%
- residual activity [22]: 94%
- residual activity [23]: 88%
- residual activity [24]: 65%
- residual activity [25]: 81%
- residual activity [26]: 91%
- residual activity [27]: 96%
- residual activity [28]: 88%
- residual activity [29]: 90%
- residual activity [30]: 87%
- residual activity [31]: 100%
- residual activity [32]: 100%
- residual activity [33]: 78%
- residual activity [34]: 100%
- residual activity [35]: 99%
- residual activity [36]: 96%
- residual activity [37]: 100%
- residual activity [38]: 97%
- residual activity [39]: 100%
- residual activity [40]: 100%
- residual activity [41]: 100%
- residual activity [42]: 83%
- inhibition [43]: 20.1%
- residual activity [44]: 85%
- residual activity [45]: 100%

Compound: COc1cc(-c2cn([C@H]3CCc4c(F)cccc4N(CC(F)(F)F)C3=O)nn2)ccc1-n1cnc(C)c1
- residual activity [1]: 100%
- residual activity [2]: 72%
- residual activity [3]: 93%
- residual activity [4]: 63%
- residual activity [5]: 100%
- inhibition [6]: 31.1%
- Ki ([7]; read-out: Ki): 890 nM
- inhibition [8]: 26.1%
- residual activity [9]: 100%
- residual activity [10]: 100%
- residual activity [11]: 100%
- residual activity [12]: 100%
- residual activity [13]: 100%
- residual activity [14]: 86%
- residual activity [15]: 100%
- residual activity [16]: 100%
- residual activity [17]: 100%
- residual activity [18]: 100%
- residual activity [19]: 100%
- residual activity [20]: 100%
- residual activity [21]: 100%
- residual activity [22]: 89%
- residual activity [23]: 100%
- residual activity [24]: 73%
- residual activity [25]: 100%
- residual activity [26]: 100%
- residual activity [27]: 100%
- residual activity [28]: 90%
- residual activity [29]: 100%
- residual activity [30]: 77%
- residual activity [31]: 100%
- residual activity [32]: 77%
- residual activity [33]: 100%
- residual activity [34]: 100%
- residual activity [35]: 89%
- residual activity [36]: 99%
- residual activity [37]: 100%
- residual activity [38]: 100%
- residual activity [39]: 0%
- residual activity [40]: 100%
- residual activity [41]: 100%
- residual activity [42]: 87%
- inhibition [43]: -8.33%
- residual activity [44]: 100%
- residual activity [45]: 100%
